Target: C5aR (Homo sapiens (Human), UniProt P21730)
Experiment: Chemotaxis assay (inhibition of C5aR mediated migration towards C5a)
Assay type: cell-based
Conditions: inhibition in the chemotaxis assay (Example 14 B.3); U937 or neutrophil cells, 0.03 nM C5a
Description: U937 cells are a monocytic cell line which express C5aR, and are available from ATCC (VA). These cells were cultured as a suspension in RPMI-1640 medium supplemented with 2 mM L-glutamine, 1.5 g/L sodium bicarbonate, 4.5 g/L glucose, 10 mM HEPES, 1 mM sodium pyruvate, and 10% FBS. Cells were grown under 5% CO2/95% air, 100% humidity at 37° C. and subcultured twice weekly at 1:6 (cells were cultured at a density range of 1×10^5 to 2×10^6 cells/mL) and harvested at 1×10^6 cells/mL. Prior to assay, cells are treated overnight with 0.5 mM of cyclic AMP (Sigma, Ohio) and washed once prior to use. cAMP treated U937 cells can be used in C5aR ligand binding and functional assays.
Optionally, human or murine neutrophils can be used to assay for compound activity. Neutrophils may be isolated from fresh human blood using density separation and centrifigation. Briefly, whole blood is incubated with equal parts 3% dextran and allowed to separate for 45 minutes. After separation, the top layer is layered on top of 15 mls of Ficoll (15 mls of Ficoll for every 30 mls of blood suspension) and centrifuged for 30 minutes at 400×g with no brake. The pellet at the bottom of the tube is then isolated and resuspended into PharmLyse RBC Lysis Buffer (BD Biosciences, San Jose, Calif.) after which the sample is again centrifuged for 10 minutes at 400×g with brake. The remaining cell pellet is resuspended as appropriate and consists of isolated neutrophils.
Optionally, compounds may be further assayed for their ability to inhibit chemotaxis in cells. Chemotaxis assays are performed using 5 μm pore polycarbonate, polyvinylpyrrolidone-coated filters in 96-well chemotaxis chambers (Neuroprobe; Gaithersburg, Md.) using chemotaxis buffer (Hank's balanced salt solution (HBSS) and 1% FBS). C5aR ligands (i.e., C5a, R&D Systems; Minneapolis, Minn.) are use to evaluate compound mediated inhibition of C5aR mediated migration. Other chemokines (i.e., SDF-1α; R&D Systems; Minneapolis, Minn.) are used as specificity controls. The lower chamber is loaded with 29 μl of chemokine (i.e., 0.03 nM C5a) and varying amounts of compound; the top chamber contains 100,000 U937 or neutrophil cells in 20 μl. The chambers are incubated 1.5 hours at 37° C., and the number of cells in the lower chamber quantified either by direct cell counts in five high powered fields per well or by the CyQuant assay (Molecular Probes), a fluorescent dye method that measures nucleic acid content and microscopic observation.

Chain of C5aR (P21730 whole entry): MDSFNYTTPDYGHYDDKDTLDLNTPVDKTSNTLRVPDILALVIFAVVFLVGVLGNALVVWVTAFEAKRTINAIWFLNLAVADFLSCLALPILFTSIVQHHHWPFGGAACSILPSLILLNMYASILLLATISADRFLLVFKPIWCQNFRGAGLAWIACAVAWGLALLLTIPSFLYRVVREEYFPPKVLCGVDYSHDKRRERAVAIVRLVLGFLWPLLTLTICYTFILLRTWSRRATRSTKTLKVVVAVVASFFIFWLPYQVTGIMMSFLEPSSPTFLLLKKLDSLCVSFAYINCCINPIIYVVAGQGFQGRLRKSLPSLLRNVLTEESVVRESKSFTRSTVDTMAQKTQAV

Structure (SMILES)	IC50
CCc1cccc(CC)c1-n1nc2c(c1-c1cc(F)c(OC)c3[nH]ccc13)CN(Cc1ccc(C(F)(F)F)cc1C(F)(F)F)C2(C)C [Compound 1.002]	< 5 nM
CCc1cccc(CC)c1-n1nc2c(c1-c1ccc(F)c3[nH]ccc13)CN(C(=O)NC(C)C)C2(C)C [Compound 1.003]	≥ 500 nM
CCc1cccc(CC)c1-n1nc2c(c1-c1ccc(F)c3[nH]ccc13)CN(C(=O)CN)C2(C)C [Compound 1.006]	≥ 500 nM
CCc1cccc(CC)c1-n1nc2c(c1-c1ccc(F)c3[nH]ccc13)CN(Cc1ncco1)C2(C)C [Compound 1.008]	50 to 500 nM
CCc1cccc(CC)c1-n1nc2c(c1-c1cccc3[nH]cc(F)c13)CN(Cc1ccc(C(F)(F)F)cc1C(F)(F)F)C2(C)C [Compound 1.010]	5 to 50 nM
CCc1cccc(CC)c1-n1nc2c(c1-c1ccc(F)c3[nH]ccc13)CN(Cc1ccc(F)cc1Cl)C2(C)C [Compound 1.012]	5 to 50 nM
CCc1cccc(CC)c1-n1nc2c(c1-c1ccc(F)c3[nH]ccc13)CN(Cc1ccc(F)cc1F)C2(C)C [Compound 1.013]	5 to 50 nM
CCc1cccc(CC)c1-n1nc2c(c1-c1ccc(F)c3[nH]cc(Cl)c13)CN(Cc1ccc(F)cc1F)C2(C)C [Compound 1.017]	< 5 nM
CCc1cccc(CC)c1-n1nc2c(c1-c1ccc(F)c3[nH]ccc13)CN(Cc1cccc(F)c1)C2(C)C [Compound 1.018]	5 to 50 nM
CCc1cccc(CC)c1-n1nc2c(c1-c1ccc(F)c3[nH]ccc13)CN(Cc1ccc(Cl)cc1Cl)C2(C)C [Compound 1.020]	5 to 50 nM
CCc1cccc(CC)c1-n1nc2c(c1-c1ccc(F)c3[nH]ccc13)CN(Cc1ccccc1)C2(C)C [Compound 1.021]	< 5 nM
CCc1cccc(CC)c1-n1nc2c(c1-c1ccc(F)c3[nH]ccc13)CN(Cc1ccc(F)cc1)C2(C)C [Compound 1.023]	< 5 nM
CCc1cccc(CC)c1-n1nc2c(c1-c1ccc(Cl)c3[nH]ccc13)CN(Cc1ccc(C(F)(F)F)cc1C(F)(F)F)C2(C)C [Compound 1.024]	< 5 nM
CCc1cccc(CC)c1-n1nc2c(c1-c1ccc(C)c3[nH]ccc13)CN(Cc1ccc(C(F)(F)F)cc1C(F)(F)F)C2(C)C [Compound 1.025]	< 5 nM
CCc1cccc(CC)c1-n1nc2c(c1-c1cc(F)c3[nH]ccc3c1)CN(Cc1ccc(C(F)(F)F)cc1C(F)(F)F)C2(C)C [Compound 1.027]	5 to 50 nM
CCc1cccc(CC)c1-n1nc2c(c1-c1ccc(F)c3[nH]ccc13)CN(C(=O)c1ccccn1)C2(C)C [Compound 1.028]	50 to 500 nM
CCc1cccc(CC)c1-n1nc2c(c1-c1ccc(F)c3[nH]ccc13)CN(Cc1ccccc1C(F)(F)F)C2(C)C [Compound 1.029]	5 to 50 nM
CCc1cccc(CC)c1-n1nc2c(c1-c1cccc3[nH]cc(Cl)c13)CN(Cc1ccc(C(F)(F)F)cc1C(F)(F)F)C2(C)C [Compound 1.034]	5 to 50 nM
CCc1cccc(CC)c1-n1nc2c(c1-c1cccc3[nH]cc(C#N)c13)CN(Cc1ccc(C(F)(F)F)cc1C(F)(F)F)C2(C)C [Compound 1.036]	5 to 50 nM
CCc1cccc(CC)c1-n1nc2c(c1-c1cccc3[nH]ccc13)CN(Cc1cc(C(F)(F)F)ccc1C(F)(F)F)C2(C)C [Compound 1.038]	5 to 50 nM
CCc1cccc(CC)c1-n1nc2c(c1-c1ccc(F)c3[nH]ccc13)CN(Cc1ccc(C(F)(F)F)cc1C(F)(F)F)C2(C)C [Compound 1.039]	5 to 50 nM
CCc1cccc(CC)c1-n1nc2c(c1-c1cccc3[nH]ccc13)CN(C(=O)COc1ccccc1)C2(C)C [Compound 1.041]	50 to 500 nM
CCc1cccc(CC)c1-n1nc2c(c1-c1cccc3[nH]ccc13)CN(Cc1cc(Cl)ccc1Cl)C2(C)C [Compound 1.042]	5 to 50 nM
CCc1cccc(CC)c1-n1nc2c(c1-c1ccc3[nH]ccc3c1)CN(Cc1ccccc1C(F)(F)F)C2(C)C [Compound 1.047]	5 to 50 nM
CCc1cccc(CC)c1-n1nc2c(c1-c1ccc3[nH]ccc3c1)CN(C(=O)OC(C)(C)C)C2(C)C [Compound 1.048]	5 to 50 nM
CCc1cccc(CC)c1-n1nc2c(c1-c1ccc3[nH]ccc3c1)CN(C(c1ccccc1)C(C)(C)O)C2(C)C (stereo not drawn) [Compound 1.049]	50 to 500 nM
CCOC(=O)C(c1ccccc1)N1Cc2c(nn(-c3c(CC)cccc3CC)c2-c2ccc3[nH]ccc3c2)C1(C)C (stereo not drawn) [Compound 1.050]	5 to 50 nM
Cc1cccc(C)c1-n1nc2c(c1-c1ccc3[nH]cnc3c1)CN(CC(C)(C)C)C2 [Compound 1.051]	≥ 500 nM
CCOC(C)(C)C(=O)N1Cc2nn(-c3c(C)cccc3C)c(-c3ccc4[nH]ccc4c3)c2C1 [Compound 1.054]	≥ 500 nM

Results, then the compound that gave them:

IC50	Structure (SMILES)
5 to 50 nM	CCc1cccc(CC)c1-n1nc2c(c1-c1ccc(F)c3[nH]ccc13)CN(Cc1cc(C(F)(F)F)cc(C(F)(F)F)c1)C2(C)C [Compound 1.001]
< 5 nM	CCc1cccc(CC)c1-n1nc2c(c1-c1ccc(CO)c3[nH]ccc13)CN(Cc1ccc(C(F)(F)F)cc1C(F)(F)F)C2(C)C [Compound 1.004]
≥ 500 nM	CCc1cccc(CC)c1-n1nc2c(c1-c1ccc(C(=O)O)c3[nH]ccc13)CN(Cc1ccc(C(F)(F)F)cc1C(F)(F)F)C2(C)C [Compound 1.005]
50 to 500 nM	CCc1cccc(CC)c1-n1nc2c(c1-c1ccc(F)c3[nH]ccc13)CN(C(=O)CNC(=O)OC(C)(C)C)C2(C)C [Compound 1.007]
50 to 500 nM	CCc1cccc(CC)c1-n1nc2c(c1-c1ccc(F)c3[nH]ccc13)CN(CC(C)(C)O)C2(C)C [Compound 1.009]
5 to 50 nM	CCc1cccc(CC)c1-n1nc2c(c1-c1ccc(F)c3[nH]cc(Cl)c13)CN(Cc1ccc(C(F)(F)F)cc1C(F)(F)F)C2(C)C [Compound 1.011]
50 to 500 nM	CCc1cccc(CC)c1-n1nc2c(c1-c1ccc(F)c3[nH]ccc13)CN(Cc1ccncc1)C2(C)C [Compound 1.014]
5 to 50 nM	CCc1cccc(CC)c1-n1nc2c(c1-c1ccc(F)c3[nH]cc(Cl)c13)CN(Cc1ccc(Cl)cc1F)C2(C)C [Compound 1.015]
50 to 500 nM	CCc1cccc(CC)c1-n1nc2c(c1-c1ccc(F)c3[nH]ccc13)CN(Cc1cccnc1)C2(C)C [Compound 1.016]
5 to 50 nM	CCc1cccc(CC)c1-n1nc2c(c1-c1ccc(F)c3[nH]ccc13)CN(Cc1ccccn1)C2(C)C [Compound 1.019]
5 to 50 nM	CCc1cccc(CC)c1-n1nc2c(c1-c1ccc(F)c3[nH]ccc13)CN(Cc1ccccc1F)C2(C)C [Compound 1.022]
< 5 nM	CCc1cccc(CC)c1-n1nc2c(c1-c1ccc(F)c3[nH]cc(Cl)c13)CN(Cc1ccccc1C(F)(F)F)C2(C)C [Compound 1.026]
5 to 50 nM	CCc1cccc(CC)c1-n1nc2c(c1-c1ccc(F)c3[nH]ccc13)CN(C(=O)CC(C)C)C2(C)C [Compound 1.030]
5 to 50 nM	CCc1cccc(CC)c1-n1nc2c(c1-c1cc(F)cc3[nH]ccc13)CN(Cc1ccc(C(F)(F)F)cc1C(F)(F)F)C2(C)C [Compound 1.031]
< 5 nM	CCc1cccc(CC)c1-n1nc2c(c1-c1ccc(F)c3[nH]ccc13)CN(CC(C)(C)C)C2(C)C [Compound 1.032]
5 to 50 nM	CCc1cccc(CC)c1-n1nc2c(c1-c1ccc(F)c3[nH]ccc13)CN(C(=O)C(C)(C)C)C2(C)C [Compound 1.033]
5 to 50 nM	CCc1cccc(CC)c1-n1nc2c(c1-c1cccc3[nH]cc(C)c13)CN(Cc1ccc(C(F)(F)F)cc1C(F)(F)F)C2(C)C [Compound 1.035]
< 5 nM	CCc1cccc(CC)c1-n1nc2c(c1-c1c(F)cc(F)c3[nH]ccc13)CN(Cc1ccc(C(F)(F)F)cc1C(F)(F)F)C2(C)C [Compound 1.037]
≥ 500 nM	CCc1cccc(CC)c1-n1nc2c(c1-c1cccc3[nH]ccc13)CN(C(=O)Cn1nc(C(F)(F)F)cc1C)C2(C)C [Compound 1.040]
5 to 50 nM	CCc1cccc(CC)c1-n1nc2c(c1-c1c(F)ccc3[nH]ccc13)CN(Cc1ccc(C(F)(F)F)cc1C(F)(F)F)C2(C)C [Compound 1.043]
5 to 50 nM	CCc1cccc(CC)c1-n1nc2c(c1-c1cccc3[nH]ccc13)CN(Cc1ccccc1C(F)(F)F)C2(C)C [Compound 1.044]
5 to 50 nM	CCc1cccc(CC)c1-n1nc2c(c1-c1cccc3[nH]ccc13)CN(Cc1ccc(C(F)(F)F)cc1C(F)(F)F)C2(C)C [Compound 1.045]
5 to 50 nM	CCc1cccc(CC)c1-n1nc2c(c1-c1ccc3[nH]ccc3c1)CN(Cc1cc(Cl)ccc1Cl)C2(C)C [Compound 1.046]
5 to 50 nM	Cc1cccc(C)c1-n1nc2c(c1-c1ccc3[nH]ccc3c1)CN(CC(C)(C)C)C2(C)C [Compound 1.052]
50 to 500 nM	Cc1cccc(C)c1-n1nc2c(c1-c1ccc3[nH]ccc3c1)CN(CC(C)(C)C)C2 [Compound 1.053]
